Reference: US10251408B2, “Catechin function enhancement method” (KYUSHU UNIVERSITY, NATIONAL UNIVERSITY CORPORATION, priority 2014, dated 2019)

Columns and labels:
[1] = test system: tail suspension test-induced disuse amyotrophy in mice; experiment: Tail suspension test-induced disuse amyotrophy (quadriceps femoris weight); type: in vivo, mouse; conditions: C57BL/6J mice; 5 mg/kg intragastric once a day; tail suspension for 10 days from day 7; FIG. 4
Protocol: Male C57BL/6J mice at 12 weeks of age were divided into 5 groups such that the average body weight was equal in all groups, i.e., a GR (ground) group, a TS (tail suspension) group, an EGCG group, an eriodictyol group, and an EGCG+eriodictyol group. From the beginning of grouping, the GR and TS groups received physiological saline, the EGCG group received EGCG and the eriodictyol group received eriodictyol (5 mg/kg) by intragastric administration, while the EGCG+eriodictyol group received EGCG and eriodictyol (5 mg/kg) by intragastric administration through a sonde. For 7 days from the beginning of grouping, all the groups were kept under normal conditions, and the TS, EGCG, eriodictyol, and EGCG+eriodictyol groups were then subjected to a tail suspension test. After the tail suspension test for 10 days (at 17 days after initiation of the experiment), all the mice were sacrificed by abdominal aortic puncture under isoflurane anesthesia, and the quadriceps femoris was excised from each mouse and measured for its weight. Each sample was administered daily throughout the experimental period. […] At 10 days after starting the tail suspension test, the mice were sacrificed by abdominal aortic puncture under isoflurane anesthesia, and the quadriceps femoris was excised from each mouse and measured for its weight.

[2] = test system: Human multiple myeloma cell line U266; experiment: Cancer cell death induction, viable cells by trypan blue assay (96-well plate, FIG. 9); type: cell-based; conditions: 96 hours, in combination with EGCG, EGCG 3″Me or green tea extract
Protocol: (§1) Human multiple myeloma cell line U266 was subcultured and maintained in RPMI 1640 medium supplemented with 10% FCS under conditions of 37° C. and water vapor-saturated 5% CO2. The cells were maintained in the logarithmic growth phase. The RPMI 1640 medium used for culture was prepared as follows: per liter of ultrapure water, RPMI 1640 medium (10.4 g), HEPES (2.38 g), injectable penicillin G potassium (100,000 units), streptomycin sulfate injectable (100 mg) and NaHCO3 (2.0 g) were suspended and then filter-sterilized.
The lemon peel extract used in the experiment was prepared as follows. Peels (100 g) were collected with a grater from 6 lemons and 100% EtOH (100 mL) was added thereto, followed by mashing with a mortar. The mashed mixture was further strained through gauze to remove fibers and then filtered by gravity using a #1 paper filter and a funnel to remove precipitates, followed by centrifugation at 12000×g to collect the supernatant. The resulting ethanol extract of lemon was evaporated with an evaporator to volatilize the solvent, thereby obtaining an ethanol-extracted lemon fraction. This ethanol-extracted lemon fraction was dissolved again in DMSO to give a lemon extract. […] After culture, viable cells were counted by trypan blue assay.
To evaluate the effect of combined use of EGCG or a structural analog thereof or an EGCG-containing naturally occurring product and eriodictyol or a structural analog thereof or an eriodictyol-containing naturally occurring product, human multiple myeloma cell line U266 was adjusted to 5×10^4 cells/mL and seeded in a 96-well plate, and then cultured for 96 hours in the presence of EGCG and eriodictyol added at a final concentration of 5 μM each. After culture for 96 hours, viable cells were counted by trypan blue assay.

[3] = test system: Human multiple myeloma cell line U266; experiment: Anticancer effect, viable cells by trypan blue assay (24-well plates, FIG. 14-19); type: cell-based; conditions: 5 μM each, 96 hours; for enhancement of the anticancer effect (viable cells) of EGCG: combined with EGCG; for enhancement of the anticancer effect (viable cells) of EGCG 3″Me: combined with EGCG 3″Me; for enhancement of the anticancer effect (viable cells) of GCG: combined with GCG (gallocatechin gallate)
Protocol: as §1, with “fetal bovine serum (FCS)” for “FCS”, “filter-sterilized. Then, the RPMI 1640 medium was supplemented with FCS and used for cell culture. Per liter of ultrapure water, NaCl (8.0 g), KCl (0.2 g), Na2HPO4 (1.15 g) and KH2PO4 (0.2 g) were dissolved to prepare PBS, which was then sterilized in an autoclave.” for “filter-sterilized.”
Eriodictyol and structural analogs thereof, i.e., naringenin and hesperetin, as well as glycosides thereof, i.e., eriocitrin, naringin and hesperidin were each adjusted to 5 mM with 100% dimethyl sulfoxide (DMSO) and stored at −30° C. EGCG and (−)-gallocatechin gallate (GCG) were each adjusted to 5 mM with ultrapure water and stored at −30° C. EGCG 3″Me was adjusted to 5 mM with 10% DMSO dH2O and stored at −30° C.
U266 adjusted to 5×10^4 cells/mL in RPMI 1640 containing 1% FCS, SOD (5 U/mL) and catalase (200 U/mL) was seeded in 24-well plates and cultured for 96 hours in the presence of EGCG and analogs thereof or eriodictyol and analogs thereof added at a final concentration of 5 μM each. After culture, viable cells were counted by trypan blue assay.
For statistical processing of the experimental results, Student's test was used and P<0.05 was considered statistically significant in comparison with control data in the vehicle group.

| Compound | effect on amyotrophy (quadriceps femoris weight) [1] | enhancement of the anticancer effect (viable cells) of EGCG, EGCG 3″Me or a green tea extract [2] | enhancement of the anticancer effect (viable cells) of EGCG [3] | enhancement of the anticancer effect (viable cells) of EGCG 3″Me [3] | enhancement of the anticancer effect (viable cells) of GCG [3] |
| --- | --- | --- | --- | --- | --- |
| O=C(O[C@@H]1Cc2c(O)cc(O)cc2O[C@@H]1c1cc(O)c(O)c(O)c1)c1cc(O)c(O)c(O)c1 [EGCG, epigallocatechin gallate] | no effect on amyotrophy | – | – | – | – |
| COc1ccc([C@@H]2CC(=O)c3c(O)cc(O)cc3O2)cc1O [hesperetin] | – | remarkably enhance the anticancer effect | remarkably enhance the anticancer effect | remarkably enhance the anticancer effect | remarkably enhance the anticancer effect |
| COc1ccc([C@@H]2CC(=O)c3c(O)cc(O[C@@H]4O[C@H](CO[C@@H]5O[C@@H](C)[C@H](O)[C@@H](O)[C@H]5O)[C@@H](O)[C@H](O)[C@H]4O)cc3O2)cc1O [hesperidin] | – | – | remarkably enhance the anticancer effect | remarkably enhance the anticancer effect | remarkably enhance the anticancer effect |
| C[C@@H]1O[C@@H](OC[C@H]2O[C@@H](Oc3cc(O)c4c(c3)O[C@H](c3ccc(O)c(O)c3)CC4=O)[C@H](O)[C@@H](O)[C@@H]2O)[C@H](O)[C@H](O)[C@H]1O [eriocitrin] | – | – | remarkably enhance the anticancer effect | remarkably enhance the anticancer effect | remarkably enhance the anticancer effect |
| C[C@@H]1O[C@@H](O[C@H]2[C@H](Oc3cc(O)c4c(c3)O[C@H](c3ccc(O)cc3)CC4=O)O[C@H](CO)[C@@H](O)[C@@H]2O)[C@H](O)[C@H](O)[C@H]1O [naringin] | – | – | remarkably enhance the anticancer effect | – | – |
| O=C1C[C@@H](c2ccc(O)cc2)Oc2cc(O)cc(O)c21 [naringenin] | – | remarkably enhance the anticancer effect | remarkably enhance the anticancer effect | remarkably enhance the anticancer effect | remarkably enhance the anticancer effect |
